Experimental data taken from US5770599A, “Quinazoline derivatives” (Zeneca Limited, priority 1995, dated 1998).
Like-named read-outs stand apart in the source and are kept apart here.

Key:
[1] = tested on: EGF receptor tyrosine kinase; settings: Fry et al., Science, 1994, 265, 1093; cited from earlier work
[2] = tested on: human vulval epidermoid carcinoma cell line A-431; assay: Test (c): in vivo inhibition of growth of A-431 xenografts in athymic nude mice; design: species or system human (xenograft in athymic nude mice); settings: Mus musculus, A-431, 312 h; usually oral, once daily, 13 days; approximately
Protocol: (c) An in-vivo assay in a group of athymic nude mice (strain ONU:Alpk) which determines the ability of a test compound (usually administered orally as a ball-milled suspension in 0.5% polysorbate) to inhibit the growth of xenografts of the human vulval epidermoid carcinoma cell line A-431.
A-431 cells were maintained in culture in DMEM supplemented with 5% FCS and 2 mM glutamine. Freshly cultured cells were harvested by trypsinization and injected subcutaneously (10 million cells/0.1 ml/mouse) into both flanks of a number of donor nude mice. When sufficient tumour material was available (after approximately 9 to 14 days), fragments of tumour tissue were transplanted in the flanks of recipient nude mice (test day 0). Generally, on the seventh day after transplantation (test day 7) groups of 7 to 10 mice with similar-sized tumours were selected and dosing of the test compound was commenced. Once daily dosing of test compound was continued for a total of 13 days (test days 7 to 19 inclusive). In some studies the dosing of the test compound was continued beyond test day 19, for example to test day 26. In each case, on the following test day the animals were killed and the final tumour volume was calculated from measurements of the length and width of the tumours. Results were calculated as a percentage inhibition of tumour volume relative to untreated controls.

[3] = tested on: human naso-pharyngeal cancer cell line KB; assay: cells; type: cell-based; settings: 72 h, values stated as approximate, EGF 10 ng/ml, 3 days, read-out: Test (b) IC50
Protocol: (b) An in vitro assay which determines the ability of a test compound to inhibit the EGF-stimulated growth of the human naso-pharyngeal cancer cell line KB.
Cell growth was determined after incubation for 3 days by the extent of metabolism of MTT tetrazolium dye to furnish a bluish colour. Cell growth was then determined in the presence of EGF (10 ng/ml) or in the presence of EGF (10 ng/ml) and a test compound at a range of concentrations. An IC50 value could then be calculated.

[4] = biological target: T1, EGF receptor tyrosine kinase (Homo sapiens, UniProt P00533); assay: Test (a): in vitro assay of inhibition of the enzyme EGF receptor tyrosine kinase (32P peptide phosphorylation); type: biochemical
T1 construct: Receptor tyrosine kinase was obtained in partially purified form from A-431 cells; endogenous in cells; host or cells: A-431 cells (human vulval carcinoma); solubilised membrane fraction
Protocol: (a) An in vitro assay which-determines the ability of a test compound to inhibit the enzyme EGF receptor tyrosine kinase.
A-431 cells were grown to confluence using Dulbecco's modified Eagle's medium (DMEM) containing 5% fetal calf serum (FCS). […] The homogenate was centrifuged at 400 g for 10 minutes at 0°-4° C. The supernatant was centrifuged at 25,000 g for 30 minutes at 0°-4° C. The pelleted material was suspended in 30 mM Hepes buffer at pH 7.4 containing 5% glycerol, 4 mM benzamidine and 1% Triton X-100, stirred for 1 hour at 0°-4° C., and recentrifuged at 100,000 g for 1 hour at 0°-4° C. The supernatant, containing solubilised receptor tyrosine kinase, was stored in liquid nitrogen.
There was thus obtained the test enzyme solution.
Equal volumes of this solution and a solution of epidermal growth factor (EGF; 20 μg/ml) were mixed.
[γ-^32 P]ATP (3000 Ci/mM, 250 μCi) was diluted to a volume of 2 ml by the addition of a solution of ATP (100 μM) in distilled water. An equal volume of a 4 mg/ml solution of the peptide […]in a mixture of 40 mM Hepes buffer at pH 7.4, 0.1% Triton X-100 and 10% glycerol was added.
The test compound/EGF mixture solution (5 μl) was added to the test enzyme solution (10 μl) and the mixture was incubated at 0°-4° C. for 30 minutes. The ATP/peptide mixture (10 μl) was added and the mixture was incubated at 25° C. for 10 minutes. The phosphorylation reaction was terminated by the addition of 5% trichloroacetic acid (40 μl ) and bovine serum albumin (BSA; 1 mg/ml, 5 μl). The mixture was allowed to stand at 4° C. for 30 minutes and then centrifuged. An aliquot (40 μl) of the supernatant was placed onto a strip of Whatman p 81 phosphocellulose paper. The strip was washed in 75 mM phosphoric acid (4×10 ml) and blotted dry. Radioactivity present in the filter paper was measured using a liquid scintillation counter (Sequence A). The reaction sequence was repeated in the absence of the EGF (Sequence B) and again in the absence of the test compound (Sequence C).

[5] = tested on: another carcinoma which does not express EGF receptor tyrosine kinase; settings: Toi et al., 1990; cited from earlier work
[6] = values stated as approximate, EGF receptor tyrosine kinase from A-431 cells

T1 sequence (P00533 25-1210): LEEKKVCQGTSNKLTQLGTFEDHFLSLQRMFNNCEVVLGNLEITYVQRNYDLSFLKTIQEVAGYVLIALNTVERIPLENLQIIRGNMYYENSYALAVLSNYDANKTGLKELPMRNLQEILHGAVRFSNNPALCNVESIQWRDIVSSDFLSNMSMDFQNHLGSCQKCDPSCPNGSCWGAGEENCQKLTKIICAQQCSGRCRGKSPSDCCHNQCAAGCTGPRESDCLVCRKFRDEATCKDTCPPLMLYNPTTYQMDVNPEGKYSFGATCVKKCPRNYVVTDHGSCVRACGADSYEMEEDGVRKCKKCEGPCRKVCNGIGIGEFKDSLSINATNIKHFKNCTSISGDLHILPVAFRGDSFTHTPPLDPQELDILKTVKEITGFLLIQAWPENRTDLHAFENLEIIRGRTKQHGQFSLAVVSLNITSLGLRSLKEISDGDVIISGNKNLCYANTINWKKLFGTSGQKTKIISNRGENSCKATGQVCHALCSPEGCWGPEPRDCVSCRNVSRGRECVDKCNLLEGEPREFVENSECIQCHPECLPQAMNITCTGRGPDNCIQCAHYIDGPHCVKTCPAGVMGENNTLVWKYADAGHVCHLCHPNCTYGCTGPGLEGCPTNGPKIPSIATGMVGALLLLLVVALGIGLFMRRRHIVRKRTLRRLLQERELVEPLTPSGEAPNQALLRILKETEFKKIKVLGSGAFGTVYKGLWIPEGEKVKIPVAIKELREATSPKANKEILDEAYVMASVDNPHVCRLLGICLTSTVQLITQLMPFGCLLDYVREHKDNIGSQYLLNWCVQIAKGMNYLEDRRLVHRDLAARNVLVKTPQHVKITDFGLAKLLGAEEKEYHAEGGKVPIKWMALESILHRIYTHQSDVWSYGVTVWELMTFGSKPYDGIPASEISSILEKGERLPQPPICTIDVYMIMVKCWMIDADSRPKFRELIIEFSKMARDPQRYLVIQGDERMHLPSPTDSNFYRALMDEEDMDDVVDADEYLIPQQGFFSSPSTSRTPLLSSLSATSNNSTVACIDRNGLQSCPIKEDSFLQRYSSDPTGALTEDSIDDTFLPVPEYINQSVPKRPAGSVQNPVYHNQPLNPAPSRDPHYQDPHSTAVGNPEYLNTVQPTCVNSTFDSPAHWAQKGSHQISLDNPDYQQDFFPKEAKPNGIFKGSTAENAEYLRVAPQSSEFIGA

SMILES | IC50 [3] [nM] | IC50 [4, 6] [nM] | other results
COc1cc2ncnc(Nc3cccc(Br)c3)c2cc1OC [4-(3'-bromoanilino)-6,7-dimethoxyquinazoline] |  |  | inhibition of EGF receptor tyrosine kinase [1]: highly potent inhibitor of EGF receptor tyrosine kinase
COc1cc2ncnc(Nc3ccc(F)c(Cl)c3)c2cc1OCCCN1CCOCC1 [Example 1, 4-(3'-chloro-4'-fluoroanilino)-7-methoxy-6-(3-morpholinopropoxy)quinazoline] |  |  | ED50 [2]: ~12.5 mg/kg
COc1cc2ncnc(Nc3ccc(F)c(Cl)c3)c2cc1OCCN1CCOCC1 [Example 3, 4-(3'-chloro-4'-fluoroanilino)-7-methoxy-6-(2-morpholinoethoxy)quinazoline] | 400 | 10 | 
COc1cc2ncnc(Nc3ccc(F)c(Cl)c3)c2cc1OCCN1CCN(C)CC1 [Example 4, 4-(3'-chloro-4'-fluoroanilino)-7-methoxy-6-[2-(4-methylpiperazin-1-yl)ethoxy]quinazoline] | 100 |  | IC50 [4]: 10 nM
COCCN(CCOC)CCOc1cc2c(Nc3ccc(F)c(Cl)c3)ncnc2cc1OC [Example 5, 4-(3'-chloro-4'-fluoroanilino)-7-methoxy-6-{2-[di-(2-methoxyethyl)amino]ethoxy}quinazoline] | 200 | 60 | 
COc1cc2ncnc(Nc3ccc(F)c(Cl)c3)c2cc1OCCN(C)C [Example 6, 4-(3'-chloro-4'-fluoroanilino)-6-(2-dimethylaminoethoxy)-7-methoxyquinazoline] | 100 | 10 | 
CCN(CC)CCOc1cc2c(Nc3ccc(F)c(Cl)c3)ncnc2cc1OC [Example 7, 4-(3'-chloro-4'-fluoroanilino)-6-(2-diethylaminoethoxy)-7-methoxyquinazoline] | 300 | 90 | 
COc1cc2ncnc(Nc3ccc(F)cc3F)c2cc1OCCCN(C)C [Example 8, 4-(2',4'-difluoroanilino)-6-(3-dimethylaminopropoxy)-7-methoxyquinazoline] | 900 | 480 | 
COc1cc2ncnc(Nc3ccc(F)c(Cl)c3)c2cc1OCC(O)CN1CCOCC1 (stereo not shown) [Example 9, 4-(3'-chloro-4'-fluoroanilino)-6-(2-hydroxy-3-morpholinopropoxy)-7-methoxyquinazoline] | 100 | 10 | 
COc1cc2ncnc(Nc3ccc(F)cc3F)c2cc1OCCCN1CCOCC1 [Example 14, 4-(2',4'-difluoroanilino)-7-methoxy-6-(3-morpholinopropoxy)quinazoline] | 300 | 670 | 
COc1cc2ncnc(Nc3ccc(F)c(F)c3)c2cc1OCCCN(C)C [Example 18, 4-(3',4'-difluoroanilino)-6-(3-dimethylaminopropoxy)-7-methoxyquinazoline] | 390 | 270 | 
COc1cc2ncnc(Nc3ccc(F)c(F)c3)c2cc1OCCCN1CCOCC1 [Example 19, 4-(3',4'-difluoroanilino)-7-methoxy-6-(3-morpholinopropoxy)quinazoline] | 450 | 520 | 
CCN(CC)CCCOc1cc2c(Nc3ccc(F)c(F)c3)ncnc2cc1OC [Example 20, 6-(3-diethylaminopropoxy)-4-(3',4'-difluoroanilino)-7-methoxyquinazoline] | 550 | 670 | 
O=CN/C=C/c1cc(O)ccc1O [erbstatin] |  |  | growth of another carcinoma not expressing EGF receptor tyrosine kinase [5]: without effect on the growth
